Measurements from US4676822A, “Fluid fertilizers containing thiophosphoryl triamide” (Tennessee Valley Authority, priority 1986, dated 1987).
Values joined by “and” are separate entries in the source; they are usually repeats but may differ in a detail not shown here. Identical values can stand only once.

Assay: Stability of TPTA in 40 wt % urea solution (HPLC)
Type: physicochemical
Settings: 25° C.; for % original TPTA remaining: 40 wt % urea solution
Procedure: A 40 weight percent urea solution (initial pH=8.5) was prepared by dissolving 80 g of urea in 120 g of water. A sample containing 1 weight percent TPTA was prepared by dissolving 1 g of TPTA in 99 g of the 40 weight percent urea solution. The sample was maintained at room temperature (25° C.) and analyzed periodically for TPTA by HPLC. The results of this kinetic study are given in Table IV infra and as noted supra plotted in FIG. 3 along with the first-order rate equation (solid line FIG. 3) which was determined by linear regression.

## NP(N)(N)=S [TPTA, thiophosphoryl triamide]
1 wt % TPTA, initial pH 8.5, first-order
  reaction half-life in 40 weight percent urea solution: 168 days
Time 0.00 days
  % original TPTA remaining: 100.00%
Time 9.04 days
  % original TPTA remaining: 94.96%
Time 9.25 days
  % original TPTA remaining: 94.83%
Time 10.21 days
  % original TPTA remaining: 93.97%
Time 13.05 days
  % original TPTA remaining: 94.25%
Time 14.99 days
  % original TPTA remaining: 89.47%
Time 17.22 days
  % original TPTA remaining: 88.78%
Time 20.27 days
  % original TPTA remaining: 91.44%
Time 22.12 days
  % original TPTA remaining: 87.44%
Time 24.07 days
  % original TPTA remaining: 88.80%
Time 29.19 days
  % original TPTA remaining: 87.81%
Time 31.23 days
  % original TPTA remaining: 87.90%
Time 34.23 days
  % original TPTA remaining: 88.52%
Time 36.03 days
  % original TPTA remaining: 86.26%
Time 38.19 days
  % original TPTA remaining: 91.36%
Time 41.19 days
  % original TPTA remaining: 88.11%
Time 43.10 days
  % original TPTA remaining: 78.25%
Time 45.07 days
  % original TPTA remaining: 79.73%
Time 48.04 days
  % original TPTA remaining: 76.59%
Time 50.20 days
  % original TPTA remaining: 78.68%
Time 52.00 days, 74880 min
  % original TPTA remaining: 76.66% and 76.56%
Time 56.04 days
  % original TPTA remaining: 76.52%
Time 62.02 days
  % original TPTA remaining: 76.02%
Time 76.14 days, 109642 min
  % original TPTA remaining: 76.78%
Time 83.11 days, 119678 min
  % original TPTA remaining: 70.05%
Time 97.06 days, 139766 min
  % original TPTA remaining: 65.19%
